These are literature values, as cited in patent publication US20240397950A1, “DISINFECTANT COMPOSITION” (OTSUKA PHARMACEUTICAL FACTORY, INC., priority 2018, published 2024).

For the compound `N=C(NCCCCCCNC(=N)NC(=N)Nc1ccc(Cl)cc1)NC(=N)Nc1ccc(Cl)cc1.O=C(O)[C@H](O)[C@@H](O)[C@H](O)[C@H](O)CO.O=C(O)[C@H](O)[C@@H](O)[C@H](O)[C@H](O)CO` [Chlorhexidine gluconate], the “pH at which a dilute aqueous solution causes precipitation” value is on record as not below 8.
